Measured values: article PMC8909834, “An Orally Bioavailable and Highly Efficacious Inhibitor of CDK9/FLT3 for the Treatment of Acute Myeloid Leukemia” (Cancers, 2022)

Experiments:
Assay in all cases: Kinase Hotspot radiolabel assay
Type in all cases: biochemical
Conditions in all cases: read-out: % Residual Activity
ARAF = target: T1, ARAF (Homo sapiens, UniProt P10398)
T1 construct: purchased Reaction Biology Corporation (Kinase HotSpot)
Experimental: (§1) Kinase assay. The ADP Glo^TM kinase assay (Promega, Madison, WI, USA) was used to assess the inhibition by CDDD11-8 of CDKs 1, 2, 4, 6, 7, and 9, as well as the mutant isoforms of FLT3. The assays were performed in accord with the manufacturer’s protocol (Promega) as described previously. Briefly, serial three-fold dilutions of CDDD11-8 were prepared in 100% DMSO from a 2 mM stock solution, followed by 1:40 dilution into Milli-Q water. Subsequently, 1 µL of each sample was incubated with 4 µL of kinase mixture containing a particular CDK enzyme and its substrate, standard kinase buffer [3 mM MgCl2, 50 mM HEPES-NaOH pH 7.5, 3 mM MnCl2, 3 µM Na-orthovanadate, 1 mM dithiothreitol (DTT)], kinase dilution buffer (containing 0.25 mg/mL PEG20,000, 50 mM HEPES-NaOH pH 7.5, 1 mM DTT), and ATP at 37 °C for 30 to 40 min. The final reaction mixture contained 0.5% DMSO in all samples, and the applied kinase concentrations were 1, 1, 10, 40, 20, and 50 nM for CDK1, 2, 4, 6, 7, and 9, respectively. The reaction was stopped by adding ADP-Glo reagent and the mixture was incubated further in the dark at room temperature for 40 min. As a final step, kinase detection reagent was added to each mixture and incubated at room temperature for 30 to 60 min. Luminescence was read using an EnVision® multilabel plate reader (PerkinElmer, Beaconsfield, UK), and half-maximum inhibitory concentrations (IC50) were calculated using a non-linear regression model with a variable slope, plotting log (inhibitor concentration) vs. response using the following formula: Ar%=Bottom+Top−Bottom/1+Inhibitor Concentration/IC50^HillSlope where the relative activity Ar (%) is the signal relative to the controls, IC50 is the half maximum concentration, Hillslope is the steepness of the dose-response curve, Top and Bottom are plateaus reflecting the maximum and minimum in responses on the Y-axis (GraphPad Prism version 7, San Diego, CA, USA). Ki values were calculated from the IC50 using the Cheng−Prusoff equation [32]. Extensive specificity assessment was carried out by Reaction Biology Corporation (Malvern, PA, USA) with 369 kinases using 1 µM CDDD11-8 concentration in a Kinase Hotspot radiolabel assay (for experimental details, please see (Reaction Biology https://www.reactionbiology.com/). Subsequently, Ki values were determined for kinases with greater than 90% inhibition.

MAPKAPK5/PRAK = target: T2, MAPKAPK5/PRAK (Homo sapiens, UniProt Q8IW41)
T2 construct: purchased Reaction Biology Corporation (Kinase HotSpot)
T2 sequence (Q8IW41 whole entry): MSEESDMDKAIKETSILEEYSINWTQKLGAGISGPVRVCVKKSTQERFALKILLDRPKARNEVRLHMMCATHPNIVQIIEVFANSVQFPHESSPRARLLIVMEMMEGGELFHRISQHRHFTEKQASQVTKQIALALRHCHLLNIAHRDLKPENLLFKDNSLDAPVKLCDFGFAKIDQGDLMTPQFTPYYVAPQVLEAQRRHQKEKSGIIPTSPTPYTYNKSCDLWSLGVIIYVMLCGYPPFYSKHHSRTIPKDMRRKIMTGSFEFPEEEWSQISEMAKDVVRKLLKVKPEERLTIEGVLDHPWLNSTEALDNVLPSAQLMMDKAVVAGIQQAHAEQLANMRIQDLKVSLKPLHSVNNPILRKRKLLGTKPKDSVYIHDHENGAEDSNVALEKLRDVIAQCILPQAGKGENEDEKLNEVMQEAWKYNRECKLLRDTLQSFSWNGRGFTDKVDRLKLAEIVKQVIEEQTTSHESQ
Experimental: as §1

TTBK1 = target: T3, TTBK1 (Homo sapiens, UniProt Q5TCY1)
T3 construct: purchased Reaction Biology Corporation (Kinase HotSpot)
Experimental: as §1

PKG1a = target: T4, PKG1a (Homo sapiens, UniProt Q13976)
T4 construct: purchased Reaction Biology Corporation (Kinase HotSpot)
Experimental: as §1

CHK2 = target: T5, CHK2 (Homo sapiens, UniProt O96017)
T5 construct: purchased Reaction Biology Corporation (Kinase HotSpot)
Experimental: as §1

GRK6 = target: T6, GRK6 (Homo sapiens, UniProt P43250)
T6 construct: purchased Reaction Biology Corporation (Kinase HotSpot)
Experimental: as §1

c-Kit = target: T7, c-Kit (Homo sapiens, UniProt P10721)
T7 construct: purchased Reaction Biology Corporation (Kinase HotSpot)
Experimental: as §1

FYN = target: T8, FYN (Homo sapiens, UniProt P06241)
T8 construct: purchased Reaction Biology Corporation (Kinase HotSpot)
T8 sequence (P06241 whole entry): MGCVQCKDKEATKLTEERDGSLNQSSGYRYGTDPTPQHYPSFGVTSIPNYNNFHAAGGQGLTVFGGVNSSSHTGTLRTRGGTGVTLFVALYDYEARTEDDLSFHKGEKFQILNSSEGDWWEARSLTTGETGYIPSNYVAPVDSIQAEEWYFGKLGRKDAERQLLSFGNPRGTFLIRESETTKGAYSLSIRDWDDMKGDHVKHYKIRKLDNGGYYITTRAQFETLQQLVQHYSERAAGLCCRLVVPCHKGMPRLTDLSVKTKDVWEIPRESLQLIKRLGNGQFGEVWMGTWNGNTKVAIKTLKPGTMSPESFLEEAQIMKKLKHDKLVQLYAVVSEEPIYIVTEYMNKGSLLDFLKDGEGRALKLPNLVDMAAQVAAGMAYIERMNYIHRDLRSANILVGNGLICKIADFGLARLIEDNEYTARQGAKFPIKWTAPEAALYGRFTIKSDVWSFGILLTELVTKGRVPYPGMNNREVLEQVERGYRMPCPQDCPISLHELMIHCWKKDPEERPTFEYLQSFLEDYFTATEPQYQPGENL
Experimental: as §1

NEK2 = target: T9, NEK2 (Homo sapiens, UniProt P51955)
T9 construct: purchased Reaction Biology Corporation (Kinase HotSpot)
Experimental: as §1

CDK9/cyclin T2 = target: T10, CDK9/cyclin T2 (Homo sapiens, UniProt P50750)
T10 construct: purchased Reaction Biology Corporation (Kinase HotSpot)
Experimental: as §1

CDK18/cyclin Y (PCTK3) = target: T11, CDK18/cyclin Y (PCTK3) (Homo sapiens, UniProt Q07002)
T11 construct: purchased Reaction Biology Corporation (Kinase HotSpot)
Experimental: as §1

JAK3 = target: T12, JAK3 (Homo sapiens, UniProt P52333)
T12 construct: purchased Reaction Biology Corporation (Kinase HotSpot)
T12 sequence (P52333 whole entry): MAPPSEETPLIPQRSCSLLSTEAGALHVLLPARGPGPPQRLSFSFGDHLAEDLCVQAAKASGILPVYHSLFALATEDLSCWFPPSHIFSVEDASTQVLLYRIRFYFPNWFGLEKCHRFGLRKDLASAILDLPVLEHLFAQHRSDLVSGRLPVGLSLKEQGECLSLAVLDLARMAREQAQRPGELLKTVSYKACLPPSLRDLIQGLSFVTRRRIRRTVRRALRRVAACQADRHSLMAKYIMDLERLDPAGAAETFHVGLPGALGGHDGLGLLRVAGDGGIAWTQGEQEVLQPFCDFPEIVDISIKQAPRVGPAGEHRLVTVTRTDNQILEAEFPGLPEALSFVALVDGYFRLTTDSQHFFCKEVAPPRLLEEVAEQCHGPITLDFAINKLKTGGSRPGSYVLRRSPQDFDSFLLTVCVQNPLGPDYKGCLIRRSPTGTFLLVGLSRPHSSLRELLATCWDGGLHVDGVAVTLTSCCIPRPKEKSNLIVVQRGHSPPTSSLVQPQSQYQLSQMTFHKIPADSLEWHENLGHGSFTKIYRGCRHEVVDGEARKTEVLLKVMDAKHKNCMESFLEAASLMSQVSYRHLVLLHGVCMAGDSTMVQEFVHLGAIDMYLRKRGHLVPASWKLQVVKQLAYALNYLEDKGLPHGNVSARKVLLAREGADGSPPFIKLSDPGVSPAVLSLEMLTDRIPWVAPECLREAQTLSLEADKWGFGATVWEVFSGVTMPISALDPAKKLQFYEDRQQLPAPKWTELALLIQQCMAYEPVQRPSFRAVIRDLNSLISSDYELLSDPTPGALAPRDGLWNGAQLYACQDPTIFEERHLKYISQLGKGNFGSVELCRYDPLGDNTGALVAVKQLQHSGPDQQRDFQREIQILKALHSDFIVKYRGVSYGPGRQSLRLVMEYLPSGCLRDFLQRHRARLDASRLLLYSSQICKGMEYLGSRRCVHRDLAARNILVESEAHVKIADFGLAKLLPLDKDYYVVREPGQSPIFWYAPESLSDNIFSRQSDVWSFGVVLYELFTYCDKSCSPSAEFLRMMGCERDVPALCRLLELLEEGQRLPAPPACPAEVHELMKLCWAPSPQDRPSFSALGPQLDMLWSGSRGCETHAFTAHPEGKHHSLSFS
Experimental: as §1

CDK7/cyclin H = target: T13, CDK7/cyclin H (Homo sapiens, UniProt P50613)
T13 construct: purchased Reaction Biology Corporation (Kinase HotSpot)
T13 sequence (P50613 whole entry): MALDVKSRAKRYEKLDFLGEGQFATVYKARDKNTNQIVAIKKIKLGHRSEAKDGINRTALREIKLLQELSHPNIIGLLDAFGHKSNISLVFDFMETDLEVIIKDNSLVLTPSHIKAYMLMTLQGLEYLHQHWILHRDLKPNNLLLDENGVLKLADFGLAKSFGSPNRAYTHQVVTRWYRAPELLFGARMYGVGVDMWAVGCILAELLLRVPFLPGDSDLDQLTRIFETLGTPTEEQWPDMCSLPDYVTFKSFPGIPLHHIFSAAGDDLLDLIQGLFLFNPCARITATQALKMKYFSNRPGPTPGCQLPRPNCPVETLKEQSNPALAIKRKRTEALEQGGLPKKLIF
T13 sequence (P51946 whole entry partner): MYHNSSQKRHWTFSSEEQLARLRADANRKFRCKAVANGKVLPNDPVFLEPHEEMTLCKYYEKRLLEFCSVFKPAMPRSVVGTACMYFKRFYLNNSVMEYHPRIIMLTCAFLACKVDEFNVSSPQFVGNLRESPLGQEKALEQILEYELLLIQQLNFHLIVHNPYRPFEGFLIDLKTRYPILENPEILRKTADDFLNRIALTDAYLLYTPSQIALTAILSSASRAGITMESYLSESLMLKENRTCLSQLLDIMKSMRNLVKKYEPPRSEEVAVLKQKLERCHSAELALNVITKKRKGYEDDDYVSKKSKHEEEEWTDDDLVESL
T13 sequence (P51948 whole entry partner): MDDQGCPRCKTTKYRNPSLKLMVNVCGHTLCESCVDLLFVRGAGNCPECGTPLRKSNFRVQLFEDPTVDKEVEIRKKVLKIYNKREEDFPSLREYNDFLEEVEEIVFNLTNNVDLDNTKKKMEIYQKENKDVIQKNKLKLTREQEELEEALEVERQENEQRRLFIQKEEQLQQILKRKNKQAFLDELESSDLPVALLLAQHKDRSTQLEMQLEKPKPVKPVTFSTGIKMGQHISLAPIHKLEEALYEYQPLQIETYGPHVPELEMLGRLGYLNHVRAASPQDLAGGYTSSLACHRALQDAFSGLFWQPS
Experimental: as §1

YSK4/MAP3K19 = target: T14, YSK4/MAP3K19 (Homo sapiens, UniProt Q56UN5)
T14 construct: purchased Reaction Biology Corporation (Kinase HotSpot)
Experimental: as §1

CDK6/cyclin D3 = target: T15, CDK6/cyclin D3 (Homo sapiens, UniProt Q00534)
T15 construct: purchased Reaction Biology Corporation (Kinase HotSpot)
Experimental: as §1

ERK7/MAPK15 = target: T16, ERK7/MAPK15 (Homo sapiens, UniProt Q8TD08)
T16 construct: purchased Reaction Biology Corporation (Kinase HotSpot)
Experimental: as §1

CAMK1d = target: T17, CAMK1d (Homo sapiens, UniProt Q8IU85)
T17 construct: purchased Reaction Biology Corporation (Kinase HotSpot)
T17 sequence (Q8IU85 whole entry): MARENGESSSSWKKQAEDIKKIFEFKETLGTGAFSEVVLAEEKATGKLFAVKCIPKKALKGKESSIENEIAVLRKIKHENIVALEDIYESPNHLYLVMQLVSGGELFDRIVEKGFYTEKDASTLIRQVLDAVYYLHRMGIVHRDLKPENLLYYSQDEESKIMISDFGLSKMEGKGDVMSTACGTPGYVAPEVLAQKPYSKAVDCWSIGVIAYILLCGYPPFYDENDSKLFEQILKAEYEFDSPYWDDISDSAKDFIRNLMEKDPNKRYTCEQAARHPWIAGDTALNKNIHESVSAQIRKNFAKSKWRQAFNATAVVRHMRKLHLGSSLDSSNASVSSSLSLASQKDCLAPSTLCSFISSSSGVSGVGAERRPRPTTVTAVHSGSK
Experimental: as §1

TAOK2/TAO1 = target: T18, TAOK2/TAO1 (Homo sapiens, UniProt Q9UL54)
T18 construct: purchased Reaction Biology Corporation (Kinase HotSpot)
Experimental: as §1

TESK2 = target: T19, TESK2 (Homo sapiens, UniProt Q96S53)
T19 construct: purchased Reaction Biology Corporation (Kinase HotSpot)
Experimental: as §1

KHS/MAP4K5 = target: T20, KHS/MAP4K5 (Homo sapiens, UniProt Q9Y4K4)
T20 construct: purchased Reaction Biology Corporation (Kinase HotSpot)
Experimental: as §1

SIK1 = target: T21, SIK1 (Homo sapiens, UniProt P57059)
T21 construct: purchased Reaction Biology Corporation (Kinase HotSpot)
Experimental: as §1

ROCK1 = target: T22, ROCK1 (Homo sapiens, UniProt Q13464)
T22 construct: purchased Reaction Biology Corporation (Kinase HotSpot)
Experimental: as §1

STK38L/NDR2 = target: T23, STK38L/NDR2 (Homo sapiens, UniProt Q9Y2H1)
T23 construct: purchased Reaction Biology Corporation (Kinase HotSpot)
Experimental: as §1

PKCb1 = target: T24, PKCb1 (Homo sapiens, UniProt P05771)
T24 construct: purchased Reaction Biology Corporation (Kinase HotSpot)
Experimental: as §1

CK1a1L = target: T25, CK1a1L (Homo sapiens, UniProt Q8N752)
T25 construct: purchased Reaction Biology Corporation (Kinase HotSpot)
Experimental: as §1

c-MET = target: T26, c-MET (Homo sapiens, UniProt P08581)
T26 construct: purchased Reaction Biology Corporation (Kinase HotSpot)
Experimental: as §1

WNK3 = target: T27, WNK3 (Homo sapiens, UniProt Q9BYP7)
T27 construct: purchased Reaction Biology Corporation (Kinase HotSpot)
Experimental: as §1

LOK/STK10 = target: T28, LOK/STK10 (Homo sapiens, UniProt O94804)
T28 construct: purchased Reaction Biology Corporation (Kinase HotSpot)
T28 sequence (O94804 whole entry): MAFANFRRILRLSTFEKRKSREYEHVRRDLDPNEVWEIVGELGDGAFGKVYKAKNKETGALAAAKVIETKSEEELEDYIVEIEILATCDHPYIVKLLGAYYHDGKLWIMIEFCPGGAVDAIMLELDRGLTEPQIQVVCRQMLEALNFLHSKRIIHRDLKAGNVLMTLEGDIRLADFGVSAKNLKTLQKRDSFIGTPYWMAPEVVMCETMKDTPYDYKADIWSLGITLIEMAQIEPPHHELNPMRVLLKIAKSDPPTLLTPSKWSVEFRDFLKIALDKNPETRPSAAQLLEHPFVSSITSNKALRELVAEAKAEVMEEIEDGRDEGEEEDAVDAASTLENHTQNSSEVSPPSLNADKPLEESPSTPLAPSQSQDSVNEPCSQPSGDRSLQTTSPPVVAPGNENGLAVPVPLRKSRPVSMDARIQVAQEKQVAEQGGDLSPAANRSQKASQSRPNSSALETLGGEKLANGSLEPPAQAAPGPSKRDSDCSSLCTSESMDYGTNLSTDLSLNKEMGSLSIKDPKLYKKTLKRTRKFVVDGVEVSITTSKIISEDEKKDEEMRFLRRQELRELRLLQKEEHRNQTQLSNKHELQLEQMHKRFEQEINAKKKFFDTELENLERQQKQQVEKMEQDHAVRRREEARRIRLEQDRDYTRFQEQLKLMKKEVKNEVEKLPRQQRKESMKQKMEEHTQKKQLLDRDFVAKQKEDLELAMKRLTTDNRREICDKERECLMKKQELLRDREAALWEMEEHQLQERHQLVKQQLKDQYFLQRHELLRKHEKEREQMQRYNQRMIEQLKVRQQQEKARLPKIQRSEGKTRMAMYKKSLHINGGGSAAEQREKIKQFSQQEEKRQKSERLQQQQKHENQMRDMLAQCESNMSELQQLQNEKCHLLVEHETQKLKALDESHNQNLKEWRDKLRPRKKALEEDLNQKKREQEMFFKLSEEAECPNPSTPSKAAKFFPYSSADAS
Experimental: as §1

GRK5 = target: T29, GRK5 (Homo sapiens, UniProt P34947)
T29 construct: purchased Reaction Biology Corporation (Kinase HotSpot)
Experimental: as §1

NEK3 = target: T30, NEK3 (Homo sapiens, UniProt P51956)
T30 construct: purchased Reaction Biology Corporation (Kinase HotSpot)
T30 sequence (P51956 whole entry): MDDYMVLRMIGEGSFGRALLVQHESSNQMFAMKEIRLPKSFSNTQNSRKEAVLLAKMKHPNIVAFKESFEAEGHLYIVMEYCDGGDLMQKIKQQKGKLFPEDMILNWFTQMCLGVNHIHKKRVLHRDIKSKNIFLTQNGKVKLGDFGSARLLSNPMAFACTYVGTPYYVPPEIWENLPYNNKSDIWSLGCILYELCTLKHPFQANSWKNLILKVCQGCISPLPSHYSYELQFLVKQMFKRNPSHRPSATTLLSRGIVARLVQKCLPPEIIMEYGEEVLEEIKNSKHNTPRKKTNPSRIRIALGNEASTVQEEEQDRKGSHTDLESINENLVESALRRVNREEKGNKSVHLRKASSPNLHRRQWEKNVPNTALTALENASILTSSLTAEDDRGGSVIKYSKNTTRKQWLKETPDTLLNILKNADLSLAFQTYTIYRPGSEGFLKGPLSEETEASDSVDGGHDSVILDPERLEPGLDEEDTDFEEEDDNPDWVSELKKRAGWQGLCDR
Experimental: as §1

**Q.** With `Cc1cnc(N[C@H]2CC[C@H](N)CC2)nc1-c1cnc2ccc(-c3ccccc3)cn12` [CDDD11-8] as the compound, how does the remaining activity at 1 µM (ARAF) read?
**A.** Its remaining activity at 1 µM is 91.5%.

**Q.** What about the remaining activity at 1 µM (MAPKAPK5/PRAK) of the same compound?
**A.** Its remaining activity at 1 µM is 99.4%.

**Q.** What about the remaining activity at 1 µM (TTBK1) of the same compound?
**A.** The remaining activity at 1 µM was 89.5%.

**Q.** And the remaining activity at 1 µM (PKG1a)?
**A.** The remaining activity at 1 µM was 61.7%.

**Q.** And the remaining activity at 1 µM (CHK2)?
**A.** The remaining activity at 1 µM was 97.2%.

**Q.** And the remaining activity at 1 µM (GRK6)?
**A.** Its remaining activity at 1 µM is 98.5%.

**Q.** What about the remaining activity at 1 µM (c-Kit) of the same compound?
**A.** The remaining activity at 1 µM was 97.5%.

**Q.** What about the remaining activity at 1 µM (FYN) of the same compound?
**A.** The remaining activity at 1 µM was 63.2%.

**Q.** What about the remaining activity at 1 µM (NEK2) of the same compound?
**A.** Its remaining activity at 1 µM is 90.7%.

**Q.** And the remaining activity at 1 µM (CDK9/cyclin T2)?
**A.** Its remaining activity at 1 µM is 2.35%.

**Q.** What about the remaining activity at 1 µM (CDK18/cyclin Y (PCTK3)) of the same compound?
**A.** Its remaining activity at 1 µM is 100%.

**Q.** And the remaining activity at 1 µM (JAK3)?
**A.** Its remaining activity at 1 µM is 48.5%.

**Q.** What about the remaining activity at 1 µM (CDK7/cyclin H) of the same compound?
**A.** Its remaining activity at 1 µM is 63.7%.

**Q.** What about the remaining activity at 1 µM (YSK4/MAP3K19) of the same compound?
**A.** Its remaining activity at 1 µM is 63.5%.

**Q.** What about the remaining activity at 1 µM (CDK6/cyclin D3) of the same compound?
**A.** Its remaining activity at 1 µM is 96.6%.

**Q.** What about the remaining activity at 1 µM (ERK7/MAPK15) of the same compound?
**A.** The remaining activity at 1 µM was 66.4%.

**Q.** What about the remaining activity at 1 µM (CAMK1d) of the same compound?
**A.** The remaining activity at 1 µM was 87.1%.

**Q.** And the remaining activity at 1 µM (TAOK2/TAO1)?
**A.** The remaining activity at 1 µM was 45%.

**Q.** And the remaining activity at 1 µM (TESK2)?
**A.** The remaining activity at 1 µM was 100%.

**Q.** What about the remaining activity at 1 µM (KHS/MAP4K5) of the same compound?
**A.** The remaining activity at 1 µM was 20.3%.

**Q.** And the remaining activity at 1 µM (SIK1)?
**A.** The remaining activity at 1 µM was 39.7%.

**Q.** And the remaining activity at 1 µM (ROCK1)?
**A.** The remaining activity at 1 µM was 76.3%.

**Q.** And the remaining activity at 1 µM (STK38L/NDR2)?
**A.** Its remaining activity at 1 µM is 96.7%.

**Q.** What about the remaining activity at 1 µM (PKCb1) of the same compound?
**A.** The remaining activity at 1 µM was 87.4%.

**Q.** What about the remaining activity at 1 µM (CK1a1L) of the same compound?
**A.** The remaining activity at 1 µM was 90%.

**Q.** And the remaining activity at 1 µM (c-MET)?
**A.** Its remaining activity at 1 µM is 103%.

**Q.** What about the remaining activity at 1 µM (WNK3) of the same compound?
**A.** The remaining activity at 1 µM was 84%.

**Q.** And the remaining activity at 1 µM (LOK/STK10)?
**A.** Its remaining activity at 1 µM is 55.8%.

**Q.** And the remaining activity at 1 µM (GRK5)?
**A.** Its remaining activity at 1 µM is 88.9%.

**Q.** What about the remaining activity at 1 µM (NEK3) of the same compound?
**A.** Its remaining activity at 1 µM is 92.8%.
